Converted amounts (≈) assume the structure as drawn. Read-outs that look alike come from different tables or passages of the source.
Columns and labels:
[1] = test system: Vero cells; test: Toxicity (half toxic concentration) in the anti-Cox_B3 test on Vero cells; type: cell-based
[2] = test system: Cox_B3 virus; test: Anti-Cox_B3 test: inhibition of cytopathic effect (CPE) in infected Vero cells, Reed-Muench; type: cell-based; details: Cox_B3 virus in Vero cells, CPE, Reed-Muench method; for IC50: read-out: IC50 (half-inhibitory concentration for viruses)
From the text: The present examples verifies experimental results of anti-Cox_B3 of the compounds 1-137of the present invention, Pleconaril, 3-[3,5-dimethyl-4-[5-(3-methy-1,2-oxazolyl)propoxy]phenyl]-5-(trifluonomethyl) -1,2,4-oxadiazole is used as positive control.

SMILES | TC50 (half of the toxic concentration) ([1]; Vero cells, Cox_B3) [µg/mL] | IC50 [2] [µg/mL] | TC50 (half of the toxic concentration) [1] [µg/mL] | IC50 (half-inhibitory concentration for viruses) [2] [µg/mL]
Cc1cc(OCCOc2c(C)cc(-c3noc(C(F)(F)F)n3)cc2C)no1 [Compound 1, 3-[3,5-dimethyl-4-[2-(5-methylisoxazole-3-oxy)ethoxyl]phenyl]-5-(trifluoromethyl)-1,2,4-oxadiazole] | 50.67 | 0.022 (≈ 0.0574 µM) |  | 
Cc1cc(OCCOc2c(C)cc(-c3noc(C)n3)cc2C)no1 [Compound 2, 3-[3,5-dimethyl-4-[2-(5-methylisoxazole-3-oxy)ethoxyl]phenyl]-5-methyl-1,2,4-oxadiazole] | 58.78 | 0.091 (≈ 0.276 µM) |  | 
Cc1cc(-c2noc(C(F)(F)F)n2)cc(C)c1OCCOc1cc(C(F)(F)F)on1 [Compound 3, 3-[3,5-dimethyl-4-[2-(5-trifluoromethylisoxazole-3-oxy)ethoxyl]phenyl]-5-(trifluoromethyl)-1,2,4-oxadiazole] | 36.68 | 0.18 (≈ 0.412 µM) |  | 
COC(=O)c1cc(OCCOc2c(C)cc(-c3noc(C(F)(F)F)n3)cc2C)no1 [Compound 4, 3-[2-[2,6-dimethyl-4-[5-(trifluoromethyl)-1,2,4-oxadiazole-3-yl]phenoxyl]ethoxyl]-isoxazole-5-carboxylate] |  |  | 35.58 | 0.26
Cc1cc(-c2noc(C(F)(F)F)n2)cc(C)c1OCCOc1cc(C(F)(F)F)no1 [Compound 5, 3-[3,5-dimethyl-4-[2-(3-trifluoromethylisoxazole-5-oxy)ethoxyl]phenyl]-5-(trifluoromethyl)-1,2,4-oxadiazole] | 40.12 | 0.05 (≈ 0.114 µM) |  | 
COC(=O)c1cc(OCCCOc2c(C)cc(-c3noc(C(F)(F)F)n3)cc2C)no1 [Compound 7, 3-[3-[2,6-dimethyl-4-[5-(trifluoromethyl)-1,2,4-oxadiazole-3-yl]phenoxyl]propoxy]-isoxazole-5-carboxylate] |  |  | 36.48 | 0.24
Cc1cc(OCCCOc2c(C)cc(-c3noc(C(F)(F)F)n3)cc2C)on1 [Compound 8, 3-[3,5-dimethyl-4-[3-(3-methylisoxazole-5-oxy)propoxy]phenyl]-5-(trifluoromethyl)-1,2,4-oxadiazole] | 52.38 | 0.021 (≈ 0.0528 µM) |  | 
Cc1cc(OCCOc2c(C)cc(-c3noc(C(F)(F)F)n3)cc2C)ns1 [Compound 10, 3-[3,5-dimethyl-4-[2-(5-methylisothiazole-3-oxy)ethoxyl]phenyl]-5-(trifluoromethyl)-1,2,4-oxadiazole] | 46.47 | 0.042 (≈ 0.105 µM) |  | 
Cc1cc(OCCCOc2c(C)cc(-c3noc(C(F)(F)F)n3)cc2C)ns1 [Compound 11, 3-[3,5-dimethyl-4-[3-(5-methylisothiazole-3-oxy)propoxy]phenyl]-5-(trifluoromethyl)-1,2,4-oxadiazole] | 45.87 | 0.058 (≈ 0.14 µM) |  | 
Cc1c[nH]c(OCCOc2c(C)cc(-c3noc(C(F)(F)F)n3)cc2C)n1 [Compound 12, 3-[3,5-dimethyl-4-[2-(4-methylimidazole-2-oxy)ethoxyl]phenyl]-5-(trifluoromethyl)-1,2,4-oxadiazole] | 40.27 | 0.12 (≈ 0.314 µM) |  | 
Cc1csc(OCCOc2c(C)cc(-c3noc(C(F)(F)F)n3)cc2C)n1 [Compound 13, 3-[3,5-dimethyl-4-[2-(4-methylthiazole-2-oxy)ethoxyl]phenyl]-5-(trifluoromethyl)-1,2,4-oxadiazole] | 38.68 | 0.15 (≈ 0.376 µM) |  | 
Cc1cc(OCCOc2c(C)cc(-c3noc(C(F)(F)F)n3)cc2C)[nH]n1 [Compound 15, 3-[3,5-dimethyl-4-[2-(3-methyl-1H-pyrazole-5-oxy)ethoxyl]phenyl]-5-(trifluoromethyl)-1,2,4-oxadiazole] | 42.38 | 0.12 (≈ 0.314 µM) |  | 
Cc1cc(-c2noc(C(F)(F)F)n2)cc(C)c1OCCOc1cc(C(F)(F)F)nn1C [Compound 16, 3-[3,5-dimethyl-4-[2-[1-methyl-3-(trifluoromethyl)-1H-pyrazole-5-oxy]ethoxyl]phenyl]-5-(trifluoromethyl)-1,2,4-oxadiazole] | 41.38 | 0.09 (≈ 0.2 µM) |  | 
Cc1cc(-c2noc(C(F)(F)F)n2)cc(C)c1OCCOc1cc(C(=O)O)nn1C [Compound 17, 5-[2-[2,6-dimethyl-4-[5-(trifluoromethyl)-1,2,4-oxadiazole-3-yl]phenoxyl]ethoxyl]-1-methyl-1H-pyrazole-3-carboxylic acid] | 44.39 | 0.07 (≈ 0.164 µM) |  | 
Cc1cc(-c2nc(C(F)(F)F)no2)cc(C)c1OCCOc1noc(C(F)(F)F)n1 [Compound 22] |  |  | 40.78 | 0.08
Cc1nnc(OCCOc2c(C)cc(-c3noc(C(F)(F)F)n3)cc2C)[nH]1 [Compound 24, 3-[2-[2,6-dimethyl-4-[5-(trifluoromethyl)-1,2,4-oxadiazole-3-yl]phenoxyl]ethoxyl]-5-methyl-4H-1,2,4-triazole] | 42.23 | 0.03 (≈ 0.0783 µM) |  | 
Cc1nnc(SCCOc2c(C)cc(-c3noc(C(F)(F)F)n3)cc2C)[nH]1 [Compound 25, 3-[2-[2,6-dimethyl-4-[5-(trifluoromethyl)-1,2,4-oxadiazole-3-yl]phenoxyl]ethylthio]-5-methyl-4H-1,2,4-triazole] | 40.21 | 0.09 (≈ 0.225 µM) |  | 
Cc1cc(-c2noc(C(F)(F)F)n2)cc(C)c1OCCSc1nnc(C(F)(F)F)[nH]1 [Compound 26, 3-[2-[2,6-dimethyl-4-[5-(trifluoromethyl)-1,2,4-oxadiazole-3-yl]phenoxyl]ethylthio]-5-trifluoromethyl-4H-1,2,4-triazole] | 38.35 | 0.06 (≈ 0.132 µM) |  | 
Cc1cc(-c2noc(C(F)(F)F)n2)cc(C)c1OCCSc1nnc(C)n1C [Compound 27, 3-[2-[2,6-dimethyl-4-[5-(trifluoromethyl)-1,2,4-oxadiazole-3-yl]phenoxyl]ethylthio]-4,5-dimethyl-4H-1,2,4-triazole] | 39.25 | 0.07 (≈ 0.169 µM) |  | 
Cc1nnc(OCCOc2c(C)cc(-c3noc(C(F)(F)F)n3)cc2C)o1 [Compound 28, 3-[3,5-dimethyl-4-[2-[5-methyl-1,3,4-oxadiazole-2-oxy]ethoxyl]phenyl]-5-(trifluoromethyl)-1,2,4-oxadiazole] | 32.36 | 0.11 (≈ 0.286 µM) |  | 
Cc1cc(-c2noc(C(F)(F)F)n2)cc(C)c1OCCOc1nnc(C(F)(F)F)s1 [Compound 30, 3-[3,5-dimethyl-4-[2-[5-trifluoromethyl-1,3,4-thiadiazole-2-oxy]ethoxyl]phenyl]-5-(trifluoromethyl)-1,2,4-oxadiazole] | 34.39 | 0.08 (≈ 0.176 µM) |  | 
Cc1cc(-c2noc(C(F)(F)F)n2)cc(C)c1OCCOc1ncc(C(=O)O)c(O)n1 [Compound 32, 2-[2-[2,6-dimethyl-4-[5-(trifluoromethyl)-1,2,4-oxadiazole-3-yl]phenoxyl]ethoxyl]-4-hydroxyl-pyrimidine-5-carboxylic acid] | 40.28 | 0.023 (≈ 0.0522 µM) |  | 
Cc1cc(-c2noc(C(F)(F)F)n2)cc(C)c1OCCOc1nccc(C(F)(F)F)n1 [Compound 33, 2-[2-[2,6-dimethyl-4-[5-(trifluoromethyl)-1,2,4-oxadiazole-3-yl]phenoxyl]ethoxyl]-4-(trifluoromethyl) pyrimidine] | 35.28 | 0.12 (≈ 0.268 µM) |  | 
Cc1cc(-c2noc(C(F)(F)F)n2)cc(C)c1OCCSc1nccc(C(F)(F)F)n1 [Compound 34, 2-[2-[2,6-dimethyl-4-[5-(trifluoromethyl)-1,2,4-oxadiazole-3-yl]phenoxyl]ethylthio]-4-(trifluoromethyl) pyrimidine] | 33.28 | 0.11 (≈ 0.237 µM) |  | 
Cc1cc(-c2noc(C(F)(F)F)n2)cc(C)c1OCCOC(C)(C)C [Compound 36, 3-[3,5-dimethyl-4-[(2-tert-butoxy)ethoxyl]phenyl]-5-(trifluoromethyl)-1,2,4-oxadiazole] | 40.12 | 0.13 (≈ 0.363 µM) |  | 
Cc1ccc(OCCOc2c(C)cc(-c3noc(C(F)(F)F)n3)cc2C)c(F)c1 [Compound 39, 3-[3,5-dimethyl-4-[(2-fluoro-4-methylphenoxyl)ethoxyl]phenyl]-5-(trifluoromethyl)-1,2,4-oxadiazole] | 44.28 | 0.056 (≈ 0.136 µM) |  | 
COc1ccc(OCCOc2c(C)cc(-c3noc(C(F)(F)F)n3)cc2C)c(F)c1 [Compound 40, 3-[3,5-dimethyl-4-[(2-fluoro-4-methoxyphenoxyl)ethoxyl]phenyl]-5-(trifluoromethyl)-1,2,4-oxadiazole] | 45.39 | 0.044 (≈ 0.103 µM) |  | 
Cc1cc(-c2noc(C(F)(F)F)n2)cc(C)c1OCCOc1ccc([N+](=O)[O-])cc1F [Compound 41, 3-[3,5-dimethyl-4-[(2-fluoro-4-nitrophenoxyl)ethoxyl]phenyl]-5-(trifluoromethyl)-1,2,4-oxadiazole] | 46.89 | 0.033 (≈ 0.0748 µM) |  | 
Cc1cc(-c2noc(C(F)(F)F)n2)cc(C)c1OCCOc1c(Cl)cccc1Cl [Compound 42, 3-[3,5-dimethyl-4-[(2,6-dichlorophenoxyl)ethoxyl]phenyl]-5-(trifluoromethyl)-1,2,4-oxadiazole] | 36.89 | 0.033 (≈ 0.0738 µM) |  | 
Cc1cc(-c2noc(C(F)(F)F)n2)cc(C)c1OCCOc1ccc(Cl)cc1Cl [Compound 43, 3-[3,5-dimethyl-4-[(2,4-dichlorophenoxyl)ethoxyl]phenyl]-5-(trifluoromethyl)-1,2,4-oxadiazole] | 35.66 | 0.044 (≈ 0.0984 µM) |  | 

— US9145405B2, “Oxadiazole compound and preparation method thereof, pharmaceutical composition and use thereof” (SHANGHAI JIAO TONG UNIVERSITY, priority 2011, dated 2015)
